Data: US20260373165A1, “PHARMACEUTICAL COMBINATIONS AND COMPOSITIONS, AND METHODS OF USE THEREOF” (SHENZHEN HIGHTIDE BIOPHARMACEUTICAL LTD., priority 2022, published 2026)

Experiments:
Type in all cases: in vivo, mouse (C57BL/6J male, 60% HFD DIO)
[1] = Example 1: body weight and body weight change rate, combined administration of HTD1801 and empagliflozin in DIO obesity model; conditions: semaglutide 10 nmol/kg s.c. Q3D
Description: (§1) After 5-week-old C57BL/6J male mice were acclimatized for 1 week, the weight of each mouse was weighed, and the mice were randomly divided into a control group and a model group by taking the weight as a main index, where 12 mice in the control group were fed with common feed (CD), and the mice in the remaining model group were fed with 60% high-fat feed (60% HFD) for 10-12 weeks to construct a DIO obesity model, with the average body weight being not less than 40 g. The mice fed with 60% HFD were grabbed and acclimatized with a solvent for 3 days, where the acclimatization with a solvent was performed by oral gavage of 0.5% CMC-Na, twice daily.
(§2) The food intake, the body weight, the body fat ratio, and the insulin level of the mice were respectively measured, followed by fasting blood glucose level, and the mice were randomly grouped according to Table 3 by taking the body weight as an index, and the remaining ungrouped mice were euthanized. After grouping, each group of mice was administered according to Table 3, the day of administration was defined as DO, and the administration volume of each drug was determined based on the results obtained by the calculation of 5 μL/g× mouse body weight (g).
(§3) For the combined administration group, the total administration volume was the sum of the administration volumes of two single drugs, and the administration sequence and the administration time were kept consistent at each administration. The mice were continuously fed with high-fat feed during the administration period until the administration was finished. During administration, 2 food intakes were measured per week (difference in feed weights at an interval of 24 h was measured); each group of mice was weighed once daily; postprandial blood glucose levels were measured weekly; blood was collected from the tail tip on day 6 and day 20, respectively, so as to measure fasting blood glucose levels once (blood was collected after fasting from 8:00 am to […]); on day 25 of administration, the body fat ratio and the lean mass of each group of mice were measured by MRI (the measurement period was kept consistent with that before grouping); after 4 weeks of administration intervention (day 28), each group of mice was fasted for 6 h and subjected to OGTT (0 min, 15 min, 30 min, 60 min, 90 min, 120 min) to detect their blood glucose levels, and meanwhile subjected to blood sampling via submaxillary vein (0 min, 15 min, 30 min, about 30 μL of blood sampled each time), and then the blood plasma was separated for detecting the insulin level by ELISA, where the separated blood plasma was more than 10 μL; the next day (D29) at the end of administration was set as the test endpoint, and the mice were fasted for 6 h in the morning and subjected to fasting blood glucose level measurement; subsequently, the mice were euthanized with CO2, blood was collected from the heart of each mouse for analysis, and each group of mice was dissected; the liver and subcutaneous, epididymal and mesenteric fat was collected, photographed and weighed, respectively.

[2] = Example 1: body fat mass by MRI after 25 days
Description: as §1, §2, §3
After 25 days of administration, the body weight, the body fat mass and the body fat ratio of each animal in groups G1 to G6 were measured and averaged for each group, and the results are shown in Table 5 below, FIG. 4 and FIG. 5.

[3] = Example 1: lean mass by MRI after 25 days
Description: as §1, §2, §3
After 25 days of administration, the body weight, the Lean weight and the lean ratio of each animal in groups G1 to G5 were measured and averaged for each group, and the results are shown in Table 7 below, FIG. 9 and FIG. 10.

[4] = Example 1: fasting blood glucose level; conditions: semaglutide 10 nmol/kg s.c. Q3D
Description: as §1, §2
For the combined administration group, the total administration volume was the sum of the administration volumes of two single drugs, and the administration sequence and the administration time were kept consistent at each administration. The mice were continuously fed with high-fat feed during the administration period until the administration was finished. […]
After 20 days of administration, fasting blood glucose level results were measured for each group of animals and are shown in Table 8 below and FIG. 11.

[5] = Example 1: oral glucose tolerance test (OGTT), blood glucose; conditions: HTD1801 200 mpk, empagliflozin 10 mpk (reduced after week 2), semaglutide 10 nmol/kg s.c. Q3D
Description: as §1, §2, §3

[6] = Example 1: food intake within 24 h; conditions: during administration period, vs model control group
Description: as §1
The food intake, the body weight, the body fat ratio, and the insulin level of the mice were respectively measured, followed by fasting blood glucose level, and the mice were randomly grouped according to Table 3 by taking the body weight as an index, and the remaining ungrouped mice were euthanized. After grouping, each group of mice was administered according to Table 3, the day of administration was defined as DO, and the administration volume of each drug was determined based on the results obtained by the calculation of 5 μL/g× mouse body weight (g). […]

[7] = day 0 (baseline), HTD1801 300 mpk, empagliflozin 15 mpk gavage QD
[8] = day 1, HTD1801 300 mpk, empagliflozin 15 mpk gavage QD
[9] = day 2, HTD1801 300 mpk, empagliflozin 15 mpk gavage QD
[10] = day 3, HTD1801 300 mpk, empagliflozin 15 mpk gavage QD
[11] = day 4, HTD1801 300 mpk, empagliflozin 15 mpk gavage QD
[12] = day 5, HTD1801 300 mpk, empagliflozin 15 mpk gavage QD
[13] = day 6, HTD1801 300 mpk, empagliflozin 15 mpk gavage QD
[14] = day 7, HTD1801 300 mpk, empagliflozin 15 mpk gavage QD
[15] = day 8, HTD1801 300 mpk, empagliflozin 15 mpk gavage QD
[16] = day 9, HTD1801 300 mpk, empagliflozin 15 mpk gavage QD
[17] = day 10, HTD1801 300 mpk, empagliflozin 15 mpk gavage QD
[18] = day 11, HTD1801 300 mpk, empagliflozin 15 mpk gavage QD
[19] = day 12, HTD1801 300 mpk, empagliflozin 15 mpk gavage QD
[20] = day 13, HTD1801 300 mpk, empagliflozin 15 mpk gavage QD
[21] = day 14, HTD1801 300 mpk, empagliflozin 15 mpk gavage QD
[22] = day 15, HTD1801 200 mpk, empagliflozin 10 mpk (reduced after week 2) gavage QD
[23] = day 16, HTD1801 200 mpk, empagliflozin 10 mpk (reduced after week 2) gavage QD
[24] = day 17, HTD1801 200 mpk, empagliflozin 10 mpk (reduced after week 2) gavage QD
[25] = day 18, HTD1801 200 mpk, empagliflozin 10 mpk (reduced after week 2) gavage QD
[26] = day 19, HTD1801 200 mpk, empagliflozin 10 mpk (reduced after week 2) gavage QD
[27] = day 20, HTD1801 200 mpk, empagliflozin 10 mpk (reduced after week 2) gavage QD
[28] = day 21, HTD1801 200 mpk, empagliflozin 10 mpk (reduced after week 2) gavage QD
[29] = day 22, HTD1801 200 mpk, empagliflozin 10 mpk (reduced after week 2) gavage QD
[30] = day 23, HTD1801 200 mpk, empagliflozin 10 mpk (reduced after week 2) gavage QD
[31] = day 24, HTD1801 200 mpk, empagliflozin 10 mpk (reduced after week 2) gavage QD
[32] = day 25, HTD1801 200 mpk, empagliflozin 10 mpk (reduced after week 2) gavage QD
[33] = day 26, HTD1801 200 mpk, empagliflozin 10 mpk (reduced after week 2) gavage QD
[34] = day 27, HTD1801 200 mpk, empagliflozin 10 mpk (reduced after week 2) gavage QD
[35] = day 28, HTD1801 200 mpk, empagliflozin 10 mpk (reduced after week 2) gavage QD
[36] = mean, after 25 days of administration, HTD1801 200 mpk, empagliflozin 10 mpk in last 2 weeks (300/15 mpk before), semaglutide 10 nmol/kg s.c. Q3D
[37] = mean, after 25 days of administration, HTD1801 200 mpk, empagliflozin 10 mpk in last 2 weeks (300/15 mpk before)

## COc1ccc2cc3[n+](cc2c1OC)CCc1cc2c(cc1-3)OCO2.C[C@H](CCC(=O)[O-])[C@H]1CC[C@H]2[C@@H]3[C@@H](O)C[C@@H]4C[C@H](O)CC[C@]4(C)[C@H]3CC[C@]12C [HTD1801, berberine ursodeoxycholate]
[1]; after 14 days, reduced dose: HTD1801 200 mpk, empagliflozin 10 mpk
  body weight change (in words): slight rebound
[1]; [7]
  Body weight (mean): 43.6 g
  Body weight change rate: 0.0%
[1]; [8]
  Body weight (mean): 42.9 g
  Body weight change rate: −1.6%
[1]; [9]
  Body weight (mean): 43.1 g
  Body weight change rate: −1.2%
[1]; [10]
  Body weight (mean): 42.3 g
  Body weight change rate: −3.0%
[1]; [11]
  Body weight (mean): 42.3 g
  Body weight change rate: −2.9%
[1]; [12]
  Body weight (mean): 42.5 g
  Body weight change rate: −2.6%
[1]; [13]
  Body weight (mean): 42.0 g
  Body weight change rate: −3.8%
[1]; [14]
  Body weight (mean): 41.5 g
  Body weight change rate: −4.9%
[1]; [15]
  Body weight (mean): 40.8 g
  Body weight change rate: −6.2%
[1]; [16]
  Body weight (mean): 40.7 g
  Body weight change rate: −6.6%
[1]; [17]
  Body weight (mean): 40.7 g
  Body weight change rate: −6.5%
[1]; [18]
  Body weight (mean): 40.6 g
  Body weight change rate: −6.8%
[1]; [19]
  Body weight (mean): 40.8 g
  Body weight change rate: −6.3%
[1]; [20]
  Body weight (mean): 40.4 g
  Body weight change rate: −7.1%
[1]; [21]
  Body weight (mean): 39.7 g
  Body weight change rate: −8.7%
[1]; [22]
  Body weight (mean): 39.5 g
  Body weight change rate: −9.0%
[1]; [23]
  Body weight (mean): 39.6 g
  Body weight change rate: −8.8%
[1]; [24]
  Body weight (mean): 39.4 g
  Body weight change rate: −9.3%
[1]; [25]
  Body weight (mean): 38.9 g
  Body weight change rate: −10.3%
[1]; [26]
  Body weight (mean): 38.9 g
  Body weight change rate: −10.3%
[1]; [27]
  Body weight (mean): 39.2 g
  Body weight change rate: −8.4%
[1]; [28]
  Body weight (mean): 39.5 g
  Body weight change rate: −7.8%
[1]; [29]
  Body weight (mean): 39.7 g
  Body weight change rate: −7.2%
[1]; [30]
  Body weight (mean): 40.2 g
  Body weight change rate: −6.0%
[1]; [31]
  Body weight (mean): 40.5 g
  Body weight change rate: −5.4%
[1]; [32]
  Body weight (mean): 40.7 g
  Body weight change rate: −4.8%
[1]; [33]
  Body weight (mean): 40.1 g
  Body weight change rate: −6.5%
[1]; [34]
  Body weight (mean): 40.2 g
  Body weight change rate: −6.2%
[1]; [35]
  Body weight (mean): 39.5 g
  Body weight change rate: −7.9%
[1]; within 14 days, HTD1801 300 mpk, empagliflozin 15 mpk gavage QD
  body weight change / weight loss effect (in words): continuously decreased over time
[2]; after 25 days, relative to control group G2
  body fat mass and body fat ratio (in words): decreased
[2]; mean, after 25 days of administration (Table 5), HTD1801 200 mpk, empagliflozin 10 mpk in last 2 weeks (300/15 mpk before), semaglutide 10 nmol/kg s.c. Q3D
  Body weight: 40.10 g
[2]; [36]
  Body fat ratio: 40.12%
  Fat (body fat mass): 16.23 g
[3]; after 25 days, relative to model control group G2
  lean mass (in words): increased
[3]; mean, after 25 days of administration (Table 7), HTD1801 200 mpk, empagliflozin 10 mpk in last 2 weeks (300/15 mpk before)
  Body weight: 40.10 g
[3]; [37]
  Lean (lean mass): 7.50 g
  Lean ratio: 19.02%
[4]; [13]
  Mean fasting blood glucose level: 7.9 mmol/L
[4]; day 20, HTD1801 200 mpk, empagliflozin 10 mpk (reduced after week 2)
  Mean fasting blood glucose level: 8.4 mmol/L
[5]; day 28, 0 min
  OGTT blood glucose level: 10.65 mmol/L
[5]; day 28, 15 min
  OGTT blood glucose level: 19.88 mmol/L
[5]; day 28, 30 min
  OGTT blood glucose level: 20.04 mmol/L
[5]; day 28, 60 min
  OGTT blood glucose level: 23.48 mmol/L
[5]; day 28, 90 min
  OGTT blood glucose level: 19.88 mmol/L
[5]; day 28, 120 min (head printed "12 0min")
  OGTT blood glucose level: 22.22 mmol/L
[6]
  food intake within 24 h (in words): lower than the food intake for the model control group
